Experimental data from patent publication US11492325B2, “Compounds as inhibitors of sodium channels” (Human BioMolecular Research Institute, priority 2016, dated 2022).
Where two headings read alike, the source gives them in different places.

What was measured:
[1] = system: cardiomyocytes derived from hiPSCs from a LQTS3 patient; conditions: for LQT-EC50 (μM) Shortening: AP shortening
[2] = system: normal human induced pluripotent stem cell (hiPSC) cardiomyocyte; conditions: for WT-Fold Prolongation: APD; for WT-EC50 (μM) Prolongation: AP prolongation

Row | LQT-Cessation Dose ([1]; LQT3 cardiomyocytes) | Cessation of Beating ([2]; normal hiPSC cardiomyocytes) | SMILES | LQT-Fold Shortening ([1]; LQT3 cardiomyocytes) | WT-Fold Prolongation ([2]; normal hiPSC cardiomyocytes) | WT-Prolongation Dose ([2]; normal hiPSC cardiomyocytes) | LQT-Shortening Dose ([1]; LQT3 cardiomyocytes) | further results
1 | 22 µM | None | Cc1ccnc(OCC(N)c2ccccc2)c1 (stereo not drawn) [Compound 95, 2-((4-methylpyridin-2-yl)oxy)-1-phenylethan-1-amine] | 1.22 | 2.68 | – | – | WT-EAD Dose ([2]; normal hiPSC cardiomyocytes): 133 µM
2 | None | None | CC(COC1CCCCC1)=NOCc1ccccc1 [Compound 45] | 1.37 | None | None | – | –
3 | – | – | COCCNC(COc1cnccc1C)c1ccccc1 (stereo not drawn) [Compound 123] | – | – | – | – | LQT-Fold Shortening ([1]; LQT-3 cardiomyocytes): 1.402; LQT-EC50 (μM) Shortening ([1]; LQT-3 cardiomyocytes): Shortens; WT-EC50 (μM) Prolongation ([2]; WT cardiomyocytes): Does Not Prolong AP
4 | 7.4 µM | 133 µM | Cc1cccc(C)c1OCC(C)NCCc1ccccc1 (stereo not drawn) [Compound 44, 1-(2,6-dimethylphenoxy)-N-(2-phenylethyl)propan-2-amine] | 1.7 | 2.698 | – | – | WT-EAD Dose ([2]; normal hiPSC cardiomyocytes): 22 µM
5 | 66 µM | 133 µM | CNC(COc1cccc(C)c1C)c1ccccc1 (stereo not drawn) [Compound 34, 2-(2,3-dimethylphenoxy)-N-methyl-1-phenylethanamine] | 1.29 | None | None | – | –
6 | 22 µM | 66 µM | OCCNC(COc1cc(C(F)(F)F)cc(C(F)(F)F)c1)c1ccccc1 (stereo not drawn) [Compound 93] | 1.5 | None | None | – | –
7 | None | None | C[C@H](N)COc1ccccc1Cl [Compound 59] | None | 2.832 | – | None | WT-EAD Dose ([2]; normal hiPSC cardiomyocytes): 133 µM
8 | None | None | Cc1cccc(C)c1OCC(C)Nc1ccccc1 (stereo not drawn) [Compound 43, 1-(2,6-dimethylphenoxy)-N-phenylpropan-2-amine] | None | None | None | None | –
9 | 22 µM | 133 µM | CCNC(COc1cccc(C)c1C)c1ccccc1 (stereo not drawn) [Compound 33, 2-(2,3-dimethylphenoxy)-N-ethyl-1-phenylethanamine] | None | None | None | None | –
10 | – | – | NC(COc1ccc(C(F)(F)F)nc1)c1ccccc1 (stereo not drawn) [Compound 117] | – | – | – | – | LQT-Fold Shortening ([1]; LQT-3 cardiomyocytes): Does Not Shorten; LQT-Shortening Dose (μM) ([1]; LQT-3 cardiomyocytes): Does Not Shorten; LQT-EC50 (μM) Shortening ([1]; LQT-3 cardiomyocytes): Does Not Shorten; WT-EC50 (μM) Prolongation ([2]; WT cardiomyocytes): Does Not Prolong AP
11 | None | None | Cc1cccc(C)c1OCC(C)O (stereo not drawn) [Compound 37] | None | None | None | None | –
12 | 133 µM | None | CCCNC(COc1cccc(C)c1C)c1ccccc1 (stereo not drawn) [Compound 31, 2-(2,3-dimethylphenoxy)-N-propyl-1-phenylethanamine] | None | None | None | None | –
13 | – | – | COCCNC(COc1ccc(C)nc1C)c1ccccc1 (stereo not drawn) [Compound 125] | – | – | – | – | LQT-Fold Shortening ([1]; LQT-3 cardiomyocytes): Does Not Shorten; LQT-Shortening Dose (μM) ([1]; LQT-3 cardiomyocytes): Does Not Shorten; LQT-EC50 (μM) Shortening ([1]; LQT-3 cardiomyocytes): Does Not Shorten; WT-EC50 (μM) Prolongation ([2]; WT cardiomyocytes): Does Not Prolong AP
14 | None | None | NC(COc1cc(C(F)(F)F)ccn1)c1ccccc1 (stereo not drawn) [Compound 97, 1-phenyl-2-((4-(trifluoromethyl)pyridin-2-yl)oxy)ethan-1-amine] | 1.1 | None | None | – | WT-EAD Dose ([2]; normal hiPSC cardiomyocytes): 133 µM
15 | None | None | c1ccc(CON=C(COc2ccccn2)c2ccccc2)cc1 [Compound 18] | None | None | None | None | –
16 | – | – | NC(COc1cncc(C(F)(F)F)c1)c1ccccc1 (stereo not drawn) [Compound 116] | – | – | – | – | LQT-Fold Shortening ([1]; LQT-3 cardiomyocytes): 1.422; LQT-EC50 (μM) Shortening ([1]; LQT-3 cardiomyocytes): Shortens; WT-EC50 (μM) Prolongation ([2]; WT cardiomyocytes): Does Not Prolong AP
17 | 66 µM | – | Cc1cc(C)cc(OCC(NCCN2CCOCC2)c2ccccc2)c1 (stereo not drawn) [Compound 98] | 1.3 | 1.54 | – | – | –
18 | – | – | Cc1cccc(C)c1OC[C@H](N)C1CC1.Cl [Compound 61] | None | 3.829 | – | None | LQT-Cessation Dose ([1]; human, 5 min): 200 µM; Cessation of Beating [2]: None; WT-EAD Dose ([2]; human, 5 min): 66 µM
19 | – | – | COCCNC(COc1cnccc1C(F)(F)F)c1ccccc1 (stereo not drawn) [Compound 124] | – | – | – | – | LQT-Fold Shortening ([1]; LQT-3 cardiomyocytes): 1.601; LQT-EC50 (μM) Shortening ([1]; LQT-3 cardiomyocytes): Shortens; WT-EC50 (μM) Prolongation ([2]; WT cardiomyocytes): Does Not Prolong AP
20 | None | – | Cc1cccc(C)c1OCC(O)C(C)(C)C (stereo not drawn) [Compound 22] | 1.29 | – | – | – | –
21 | – | – | NC(COc1cc(C(F)(F)F)cc(C(F)(F)F)c1)c1ccc2ccccc2c1 (stereo not drawn) [Compound 132] | – | – | – | – | LQT-Fold Shortening ([1]; LQT-3 cardiomyocytes): 1.205; LQT-EC50 (μM) Shortening ([1]; LQT-3 cardiomyocytes): Shortens; LQT-Cessation Dose (μM) ([1]; LQT-3 cardiomyocytes, cessation of beating): No cessation of beating; WT-EC50 (μM) Prolongation ([2]; WT cardiomyocytes): Does Not Prolong AP
22 | None | None | CC(=O)NC(C)COc1c(C)cccc1C (stereo not drawn) [Compound 53] | None | None | None | None | –
23 | – | – | Cc1cc(C)cc(OCC(N)c2ccccc2)c1 (stereo not drawn) [Compound 104b] | – | – | – | – | EC50 ([1]; read-out: LQT-EC50 (μM)-Shortening, 'No AP' wraps to 'No AP shortening'): 0.87 µM
24 | 66 µM | 66 µM | Cc1ccc(C(N)COc2c(C)cccc2C)cc1 (stereo not drawn) [Compound 17, 2-(2,6-dimethylphenoxy)-1-p-tolylethanamine] | 1.58 | None | None | – | –
25 | 66 µM | 66 µM | Cc1cc(C)cc(OCC(NCCO)c2ccccc2)c1 (stereo not drawn) [Compound 92] | 1.41 | None | None | – | –
26 | 200 µM | 200 µM | CCCNC(C)COc1c(C)cccc1C (stereo not drawn) [Compound 38, 1-(2,6-dimethylphenoxy)-N-propylpropan-2-amine] | 1.19 | 4.584 | – | – | WT-EAD Dose ([2]; normal hiPSC cardiomyocytes): 66 µM
27 | None | None | CCNC(C)COc1c(C)cccc1C (stereo not drawn) [Compound 41, 1-(2,6-dimethylphenoxy)-N-ethylpropan-2-amine] | None | 5.338 | – | None | WT-EAD Dose ([2]; normal hiPSC cardiomyocytes): 133 µM
28 | – | – | Cc1cccc(C)c1OCC(=NOCc1ccccc1)C1CC1 [Compound 46] | 1.67 | None | None | – | LQT-Cessation Dose [1]: None; Cessation of Beating [2]: None
29 | None | None | COc1ccccc1OCC(C)N (stereo not drawn) [Compound 52, 1-(2-Methoxyphenoxy)propan-2-amine] | None | 2.499 | – | None | WT-EAD Dose ([2]; normal hiPSC cardiomyocytes): 133 µM
30 | – | – | Cc1ccc(OCC(N)c2ccccc2)c(C)n1 (stereo not drawn) [Compound 119] | – | – | – | – | LQT-Fold Shortening ([1]; LQT-3 cardiomyocytes): 1.123; LQT-EC50 (μM) Shortening ([1]; LQT-3 cardiomyocytes): Shortens; WT-EC50 (μM) Prolongation ([2]; WT cardiomyocytes): Does Not Prolong AP; WT-Cessation Dose (μM) ([2]; WT cardiomyocytes, cessation of beating): No cessation of beating

Row | SMILES | LQT-Cessation Dose ([1]; LQT3 cardiomyocytes) | Cessation of Beating ([2]; normal hiPSC cardiomyocytes) | LQT-Fold Shortening ([1]; LQT3 cardiomyocytes) | WT-Fold Prolongation ([2]; normal hiPSC cardiomyocytes) | WT-Prolongation Dose ([2]; normal hiPSC cardiomyocytes) | LQT-Shortening Dose ([1]; LQT3 cardiomyocytes) | further results
31 | Cc1cccc(OCC(C)N)c1.Cl (stereo not drawn) [Compound 86] | None | None | 1.418 | 1.68 | – | – | LQT-IC50 (uM)-Shortening ([1]; APD shortening, LQT3 cardiomyocytes): Shortens; WT-EAD Dose ([2]; normal hiPSC cardiomyocytes): 66 µM
32 | Cc1cccc(Cl)c1OCC(N)C1CCCCC1.Cl (stereo not drawn) [Compound 76] | 66 µM | 66 µM | 1.244 | None | None | – | –
33 | Cc1ccc(OCC(N)C2CC2)cc1C.Cl (stereo not drawn) [Compound 77] | 200 µM | 66 µM | 1.18 | None | None | – | –
34 | Cc1cc(OCC(N)c2ccccc2)cc(C)n1.Cl (stereo not drawn) [Compound 79] | None | None | 1.145 | 5.06 | – | – | WT-EAD Dose ([2]; normal hiPSC cardiomyocytes): 200 µM
35 | Cc1ccc(OCC(N)c2ccccc2)cc1C.Cl (stereo not drawn) [Compound 75] | 66 µM | 66 µM | 1.370 | None | None | – | –
36 | Cc1ccc(OCC(C)N)c(C)c1.Cl (stereo not drawn) [Compound 64] | None | None | None | 2.621 | – | None | WT-EAD Dose ([2]; normal hiPSC cardiomyocytes): 133 µM
37 | Cc1cccc2c1OCC(C1CC1)NC2.Cl (stereo not drawn) [Compound 74] | None | None | None | 2.633 | – | None | WT-EAD Dose ([2]; normal hiPSC cardiomyocytes): 133 µM
